In patent US6783949B1, “Processes for determining whether a test substance contains lipases or lipase inhibitors” (Aventis Pharma Deutschland GmbH, priority 1999, dated 2004):
Where two headings read alike, the source gives them in different places.

Columns and labels:
lipases, preferably HSL = target: T1, lipases, preferably HSL (Rattus norvegicus, UniProt P15304); test: Synthesized NBD-acylglycerides as substrates of lipases; format: biochemical
T1 sequence (P15304 1-768 isoform P15304-2): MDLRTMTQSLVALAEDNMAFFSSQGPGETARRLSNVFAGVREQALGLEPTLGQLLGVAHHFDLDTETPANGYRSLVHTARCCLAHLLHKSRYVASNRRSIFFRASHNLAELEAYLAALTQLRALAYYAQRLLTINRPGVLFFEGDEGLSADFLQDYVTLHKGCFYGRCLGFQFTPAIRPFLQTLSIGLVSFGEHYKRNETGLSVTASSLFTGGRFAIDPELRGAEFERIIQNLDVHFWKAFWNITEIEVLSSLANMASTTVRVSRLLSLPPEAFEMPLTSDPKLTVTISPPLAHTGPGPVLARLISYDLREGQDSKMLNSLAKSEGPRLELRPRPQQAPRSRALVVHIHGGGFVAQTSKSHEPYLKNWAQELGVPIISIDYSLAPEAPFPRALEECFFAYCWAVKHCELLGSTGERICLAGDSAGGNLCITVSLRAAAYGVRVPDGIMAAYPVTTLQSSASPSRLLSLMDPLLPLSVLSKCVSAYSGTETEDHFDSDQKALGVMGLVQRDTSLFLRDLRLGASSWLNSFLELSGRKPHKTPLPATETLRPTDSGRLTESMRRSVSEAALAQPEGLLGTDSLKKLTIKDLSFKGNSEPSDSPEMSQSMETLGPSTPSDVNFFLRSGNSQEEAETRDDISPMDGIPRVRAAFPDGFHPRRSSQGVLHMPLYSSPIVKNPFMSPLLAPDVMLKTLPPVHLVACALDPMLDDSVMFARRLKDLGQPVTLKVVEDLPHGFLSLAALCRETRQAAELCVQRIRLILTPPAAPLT

[1] = Substrate stability towards detergents and solvents (extinction at 550 nm); format: physicochemical; conditions: for Absorption at 550 nm: NAG 0.05 mg/ml, 37° C., 180 min
HSL = target: T2, HSL (Rattus norvegicus, UniProt P15304); test: Indirect NAG assay (extinction increase at 481 nm); format: biochemical; conditions: for Absorption at 481 nm: HSL 20 μg, 60 min, NAG 0.05 mg/ml
T2 construct: The partially purified HSL can be stored at −70° C. for 4 to 6 weeks; from tissue; host or cells: rat epididymal fat cells (male Wistar rats)
T2 sequence (P15304 1-768 isoform P15304-2): T1 sequence (P15304 1-768 isoform P15304-2)
Protocol: A typical reaction is carried out at 30° C. for 60 min, for example in 1.5 ml Eppendorf vessels or 96-hole plates. […] 180 μl of the substrate solution (20 μg/ml of phosphatidylcholine, 10 μg/ml of phosphatidylinositol, 50 μg/ml of NAG in assay buffer) are added. After a preincubation for 15 min at 30° C., 20 μl of HSL in assay buffer are pipetted in and the extinction is immediately measured (see above) at 481 nm in a cuvette photometer (0.5 ml cuvette) or microtiter plate reader. After a certain incubation time, which is variable and depends on the chosen enzyme concentration and can be between 2 and 240 minutes, in this case incubation at 30° C. for 60 min, the extinction is measured again. The increase in the extinction in the yellow region, in this case at 481 nm, is a measure of the enzyme activity.
Isolated rat fat cells are obtained from epididymal fatty tissue from untreated male rats (Wistar, 220-250 g) by collagenase treatment according to published processes. The fat cells from 10 rats are washed three times by flotation with 50 ml each of homogenization buffer ([…], pH 7.4, 0.25 M sucrose, 1 mM ethylenediamine-N,N,N′,N′-tetraacetic acid (EDTA), 1 mM dithiothreitol (DTT), 10 μg/ml of leupeptin, 10 μg/ml of antipain, 20 μg/ml of pepstatin) and finally taken up in 10 ml of homogenization buffer. The fat cells are homogenized in a Teflon-in-glass homogenizer (Braun-Melsungen) by 10 strokes at 1500 rpm and 15° C. The homogenizate is centrifuged (Sorvall SM24 tubes, 5000 rpm, 10 min, 4° C.). The […] between the overlying fatty layer and the pellet is removed and the centrifugation is repeated. The […] resulting from this is centrifuged again (Sorvall SM24 tubes, 20,000 rpm, 45 min, 4° C.). […] After incubation for 60 min at 4° C. (shake at intervals of 15 min), the batch is centrifuged (Sorvall SM24 tubes, 3000 rpm, 10 min, 4° C.). The supernatant is brought to pH 5.2 by addition of glacial acetic acid and incubated at 4° C. for 30 min. […] The suspension is dialyzed overnight at 4° C. against 25 mM TRIS/HCl, pH 7.4, 50% glycerol, 1 mM DTT, and 10 μg/ml of leupeptin, pepstatin, and antipain and then applied to a hydroxylapatite column (0.1 g per 1 ml of suspension, equilibrated with 10 mM potassium phosphate, pH 7.0, 30% glycerol, 1 mM DTT). The column is washed with four volumes of equilibration buffer at a flow rate of 20 to 30 ml/h. The HSL is eluted with a volume of equilibration buffer which contains 0.5 M potassium phosphate, then dialyzed (see above) and concentrated 5 to 10 times by ultrafiltration (Amicon Diaflo PM 10 filter) at 4° C. The partially purified HSL can be stored at −70° C. for 4 to 6 weeks.
6 mg of phosphatidylcholine and 6 mg of phosphatidylinositol are dissolved in 1 ml of chloroform each. 10 mg of NAG are dissolved in 1 ml of chloroform. […] The chloroform (225 μl total volume) is completely removed by overblowing with a stream of N2. The dried substrate can be stored at 4° C. for up to three days. For the preparation of the phospholipid vesicles/micelles having intercalated NAG (on the test day), the dried substrate is taken up in 20 ml of assay buffer (25 mM TRIS/HCl, pH 7.4; 150 mM NaCl) and two ultrasonic treatments with an ultrasonic probe (Branson Sonifier type 11, standard microtip): 1st treatment setting 2, 2×1 min, in between in each case 1 min on ice; 2nd treatment setting 4, 2×1 min, in between in each case 1 min on ice. […] Before use as a substrate (within the next 2 h), the solution is additionally incubated on ice for 15 min.
The assay is carried out at 30° C. for 60 min in 1.5 ml Eppendorf vessels or 96-hole plates.

Activity as substrate of lipases (lipases, preferably HSL) | Absorption at 550 nm ([1]; agent 0.05 %) [arb. units] | Absorption at 550 nm ([1]; agent 0.1 %) [arb. units] | Absorption at 550 nm ([1]; agent 0.2 %) [arb. units] | Absorption at 550 nm ([1]; agent 0.5 %) [arb. units] | Absorption at 550 nm ([1]; agent 1 %) [arb. units] | Absorption at 550 nm ([1]; agent 2 %) [arb. units] | Absorption at 550 nm ([1]; agent 5 %) [arb. units] | Absorption at 550 nm ([1]; agent 10 %) [arb. units] | Molecule | Effect on the HSL activity (HSL) | also measured
decrease in activity | – | – | – | – | – | – | – | – | 2-Hydroxy-3-[12-(7-nitrobenzo[1,2,5]oxadiazol-4-ylamino)-odecanoyloxy]propyl hexadecanoate [Compound (6)] | – | –
identical biological activity | – | – | – | – | – | – | – | – | O=C(CCCCCCCCCCCNc1ccc([N+](=O)[O-])c2nonc12)OC[C@@H](O)CO [(3a), (S)-2,3-Dihydroxypropyl 12-(7-nitrobenzo[1,2,5]oxadiazol-4-ylamino) dodecanoate] | – | –
identical biological activity | – | – | – | – | – | – | – | – | O=C(CCCCCCCCCCCNc1ccc([N+](=O)[O-])c2nonc12)OC[C@H](O)CO [Compound (3b), (R)-2,3-dihydroxypropyl 12-(7-nitrobenzo[1,2,5]oxadiazol-4-ylamino)dodecanoate] | – | –
– | 3003 ± 259 | 3199 ± 302 | 2984 ± 273 | 3055 ± 289 | 2845 ± 254 | 2317 ± 266 | 1432 ± 187 | 372 ± 51 | C[S+](C)[O-] [DMSO, Dimethyl sulfoxide] | – | Decrease of the extinction (amount of substrate) ([1]; 1% agent): 10%; Reduction of the enzyme activity (HSL; 0.5% agent): 10%; Decrease in the enzyme activity (arithmetically) (HSL; 1% agent, corrected for substrate dissolution): 20%; Absorption at 481 nm (HSL; agent 0.05 %): 3423 ± 286 arb. units; Absorption at 481 nm (HSL; agent 0.1 %): 3320 ± 319 arb. units; Absorption at 481 nm (HSL; agent 0.2 %): 3301 ± 276 arb. units; Absorption at 481 nm (HSL; agent 0.5 %): 3199 ± 235 arb. units; Absorption at 481 nm (HSL; agent 1 %): 3156 ± 196 arb. units; Absorption at 481 nm (HSL; agent 2 %): 1488 ± 213 arb. units; Absorption at 481 nm (HSL; agent 5 %): 945 ± 169 arb. units; Absorption at 481 nm (HSL; agent 10 %): 272 ± 42 arb. units; Reduction of the amount of released NBD-FA (HSL; up to 1% agent): approximately 10%
– | 3147 ± 288 | 3056 ± 213 | 3097 ± 253 | 2995 ± 231 | 2834 ± 256 | 2510 ± 194 | 1935 ± 163 | 873 ± 103 | CCO [Ethanol] | – | Absorption at 481 nm (HSL; agent 0.05 %): 3776 ± 253 arb. units; Absorption at 481 nm (HSL; agent 0.1 %): 4093 ± 387 arb. units; Absorption at 481 nm (HSL; agent 0.2 %): 4894 ± 325 arb. units; Absorption at 481 nm (HSL; agent 0.5 %): 4231 ± 296 arb. units; Absorption at 481 nm (HSL; agent 1 %): 3541 ± 294 arb. units; Absorption at 481 nm (HSL; agent 2 %): 2143 ± 215 arb. units; Absorption at 481 nm (HSL; agent 5 %): 1327 ± 143 arb. units; Absorption at 481 nm (HSL; agent 10 %): 423 ± 55 arb. units; Effect on the HSL activity (HSL; between 0.1 and 1% agent): increase in the HSL activity
– | 3063 ± 288 | 2935 ± 254 | 2769 ± 275 | 2506 ± 301 | 2296 ± 252 | 1413 ± 178 | 603 ± 89 | 102 ± 12 | CCCCCCCCCCCCOS(=O)(=O)[O-].[Na+] [SDS, Sodium dodecyl sulfate] | – | –
– | – | – | – | – | – | – | – | – | CC(C)=O [acetone] | increase in the HSL activity | –
– | 3166 ± 308 | 3247 ± 253 | 3119 ± 277 | 2954 ± 248 | 2154 ± 199 | 956 ± 101 | 489 ± 77 | 167 ± 45 | Triton ® X-100 [TX-100] | increase in the HSL activity | –

Molecule | Activity as substrate of lipases (lipases, preferably HSL) | Absorption at 550 nm ([1]; agent 0.05 %) [arb. units] | Absorption at 550 nm ([1]; agent 0.1 %) [arb. units] | Absorption at 550 nm ([1]; agent 0.2 %) [arb. units] | Absorption at 550 nm ([1]; agent 0.5 %) [arb. units] | Absorption at 550 nm ([1]; agent 1 %) [arb. units] | Absorption at 550 nm ([1]; agent 2 %) [arb. units] | Absorption at 550 nm ([1]; agent 5 %) [arb. units] | Absorption at 550 nm ([1]; agent 10 %) [arb. units] | Effect on the HSL activity (HSL) | also measured
CC(=O)OCC(COC(=O)CCCCCCCCCCCNc1ccc([N+](=O)[O-])c2nonc12)OC(C)=O (stereo not drawn) [Compound (4), 2-Acetoxy-3-[12-(7-nitrobenzo[1,2,5]oxadiazol-4-ylamino)-dodecanoyloxy]propyl acetate] | decrease in activity | – | – | – | – | – | – | – | – | – | –
CN(C)C=O [DMF, N,N-Dimethylformamide] | – | 3121 ± 294 | 2655 ± 308 | 1952 ± 299 | 1234 ± 234 | 654 ± 112 | 251 ± 82 | 105 ± 42 | 38 ± 10 | significant loss in activity | NAG released from the phospholipid/vesicle structures ([1]; 1% agent): over 80%
CO [Methanol] | – | 3056 ± 243 | 3102 ± 276 | 2945 ± 241 | 2683 ± 210 | 2534 ± 191 | 1985 ± 165 | 1438 ± 121 | 475 ± 92 | increase in the HSL activity | –
